Experimental findings from PMC12285096, “Tirzepatide mitigates Stroke-Induced Blood-Brain barrier disruption by modulating Claudin-1 and C/EBP-α pathways” (Molecular Medicine, 2025) are described below.

Series [1] deals with C/EBP-α. In words: C/EBP-α expression in OGD/R-stimulated HBMVECs (real-time PCR, western blot). The format is cell-based, human. To be noted: OGD/R + 50 and 100 nM TZP vs. OGD/R, Fig. 8A, B. The procedure:
1 mL of RNAiso Plus solution was added to the pulverized rodent cerebral cortex samples or cellular material. Following complete homogenization, the liquid fraction was extracted after high-speed centrifugation. The overall RNA pellet was then washed with 75% ethanol, and the RNA was subsequently harvested for reverse transcription. These specific procedures were carried out in accordance with the instructions provided in the PrimeScript RT reagent Kit (TaKaRa, Japan). Real-time PCR detection was performed following the experimental protocols of the Applied Biosystems 7300 instrument. Gene expression levels were determined based on cycle threshold counts. Claudin-1 and C/EBP-α were analyzed in brain homogenates (right hemisphere: Sham, MCAO, MCAO + TZP) and HBMVECs (Control, […] lysis solution, composed of 1% protease inhibitor in RIPA buffer (Sigma-Aldrich, R0278), was introduced to samples, which were homogenized over ice for 30 min. The homogenate was centrifuged at 13,500 rpm for 10 min at 4 °C. Protein was quantified using the BCA assay kit (Sigma-Aldrich, BCA1), and 50 μg protein/lane was separated on 10% SDS-PAGE and transferred to PVDF in electrophoresis buffer at 200 mA for 2 h. The membrane was blocked with 5% skim milk in TBST for 1 h. […] Bands were detected via ECL (Bio-Rad, 1705061), quantified with ImageJ, and normalized to GAPDH. […]
For orientation: Real-time PCR tracks product formation cycle by cycle.

For series [2], the system named is C/EBP-α. In words: C/EBP-α expression in mouse cortex (RT-PCR, western blot). It counts as in vivo. Conditions: Fig. 4A, B. The protocol: 1 mL of RNAiso Plus solution was added to the pulverized rodent cerebral cortex samples or cellular material. Following complete homogenization, the liquid fraction was extracted after high-speed centrifugation. The overall RNA pellet was then washed with 75% ethanol, and the RNA was subsequently harvested for reverse transcription. These specific procedures were carried out in accordance with the instructions provided in the PrimeScript RT reagent Kit (TaKaRa, Japan). Real-time PCR detection was performed following the experimental protocols of the Applied Biosystems 7300 instrument. Gene expression levels were determined based on cycle threshold counts.
Claudin-1 and C/EBP-α were analyzed in brain homogenates (right hemisphere: Sham, MCAO, MCAO + TZP) and HBMVECs (Control, OGD/R, OGD/R + TZP). A lysis solution, composed of 1% protease inhibitor in RIPA buffer (Sigma-Aldrich, R0278), was introduced to samples, which were homogenized over ice for 30 min. The homogenate was centrifuged at 13,500 rpm for 10 min at 4 °C. Protein was quantified using the BCA assay kit (Sigma-Aldrich, BCA1), and 50 µg protein/lane was separated on 10% SDS-PAGE and transferred to PVDF in electrophoresis buffer at 200 mA for 2 h. The membrane was blocked with 5% skim milk in TBST for 1 h. […] Bands were detected via ECL (Bio-Rad, 1705061), quantified with ImageJ, and normalized to GAPDH.
In general terms: A western blot detects proteins with antibodies after separation by electrophoresis.

The nature of series [3]: in vivo. To be noted: mouse, ip, 10 nmol/kg. The procedure:
TZP concentrations were measured in plasma and brain from Sham, TZP, MCAO, and MCAO + TZP groups (n = 6 per group) after 8 weeks of treatment (TZP: 10 nmol/kg, saline: 0.1 mL, i.p., weekly). At 24 h post-final dose, mice were anesthetized (xylazine 8 mg/kg, ketamine 140 mg/kg, i.p.). Plasma was collected via cardiac puncture (0.5 mL, heparinized tubes) and centrifuged (3,000 × g, 10 min, 4 °C). The right cerebral hemisphere was harvested, rinsed in cold saline, weighed, and homogenized in 1 mL PBS with 1% protease inhibitor. Homogenates were centrifuged (10,000 × g, 15 min, 4 °C). TZP was quantified by LC-MS/MS using a Shimadzu LC-20AD system and AB Sciex QTRAP 5500. Samples were diluted 1:10 in acetonitrile with internal standard (semaglutide-d6, 10 ng/mL), separated on a C18 column (2.1 × 100 mm, 1.8 μm), and detected via multiple reaction monitoring (MRM). Calibration curves (0.1–100 ng/mL, r² > 0.99) ensured linearity. Kp, brain was calculated as [TZP]brain (ng/mL, converted from ng/g)/[TZP]plasma (ng/mL). Sham and MCAO groups (no TZP) served as controls. Liraglutide’s Kp, brain was cited from the literature (Rhea et al. [2024]).

Series [4] concerns Claudin-1. Nature of the series: Claudin-1 expression in OGD/R-stimulated HBMVECs (real-time PCR, western blot). The format is cell-based, human. Conditions: for Claudin-1 expressions (mRNA): sh-C/EBP-α experiment, Fig. 9D. The procedure:
1 mL of RNAiso Plus solution was added to the pulverized rodent cerebral cortex samples or cellular material. Following complete homogenization, the liquid fraction was extracted after high-speed centrifugation. The overall RNA pellet was then washed with 75% ethanol, and the RNA was subsequently harvested for reverse transcription. These specific procedures were carried out in accordance with the instructions provided in the PrimeScript RT reagent Kit (TaKaRa, Japan). Real-time PCR detection was performed following the experimental protocols of the Applied Biosystems 7300 instrument. Gene expression levels were determined based on cycle threshold counts. Claudin-1 and C/EBP-α were analyzed in brain homogenates (right hemisphere: Sham, MCAO, MCAO + TZP) and HBMVECs (Control, […] lysis solution, composed of 1% protease inhibitor in RIPA buffer (Sigma-Aldrich, R0278), was introduced to samples, which were homogenized over ice for 30 min. The homogenate was centrifuged at 13,500 rpm for 10 min at 4 °C. Protein was quantified using the BCA assay kit (Sigma-Aldrich, BCA1), and 50 μg protein/lane was separated on 10% SDS-PAGE and transferred to PVDF in electrophoresis buffer at 200 mA for 2 h. The membrane was blocked with 5% skim milk in TBST for 1 h. Primary antibodies were incubated overnight at 4 °C: Claudin-1 (1:1000, Abcam, ab15098), C/EBP-α (1:1000, Santa Cruz Biotechnology, sc-166258), and GAPDH (1:2000, Sigma-Aldrich, A5441). HRP-conjugated secondary antibodies (1:5000, Santa Cruz, sc-2357) were incubated for 1 h. Bands were detected via ECL (Bio-Rad, 1705061), quantified with ImageJ, and normalized to GAPDH. HBMVECs were sourced from ATCC (USA). These cells were cultivated in a medium specifically designed for endothelial cultures, enriched with 10% FBS, and maintained in an incubator set at a temperature of 37 °C with 5% CO2. For OGD/R modeling, the culture medium was replaced with a serum-free, glucose-free medium, and then it was placed in a hypoxic environment (1% O2, 5% CO2, 94% N2) at a 37 °C incubator for 10 h. […]

Series [5] deals with MCAO mice. Nature of the series: Behavioral toxicity observation in the MCAO model. To be noted: TZP 10 nmol/kg i.p. weekly.
In series [6] the test system is MCAO mice. In words: TTC staining, infarct volume in MCAO mice. The format is in vivo, mouse. To be noted: MCAO + TZP mice, 10 nmol/kg i.p., MCAO mice 38.5 ± 4.2%, mean ± SD, Fig. 1B.

On to `CC[C@H](C)[C@H](NC(=O)[C@H](CC(C)C)NC(=O)[C@H](Cc1c[nH]c2ccccc12)NC(=O)[C@H](CCC(N)=O)NC(=O)[C@@H](NC(=O)[C@H](Cc1ccccc1)NC(=O)[C@H](C)NC(=O)[C@H](CCCCNC(=O)COCCOCCNC(=O)COCCOCCNC(=O)CC[C@H](NC(=O)CCCCCCCCCCCCCCCCCCC(=O)O)C(=O)O)NC(=O)[C@H](CCC(N)=O)NC(=O)[C@H](C)NC(=O)[C@@H](NC(=O)[C@H](CCCCN)NC(=O)[C@H](CC(=O)O)NC(=O)[C@H](CC(C)C)NC(=O)C(C)(C)NC(=O)[C@@H](NC(=O)[C@H](CO)NC(=O)[C@H](Cc1ccc(O)cc1)NC(=O)[C@H](CC(=O)O)NC(=O)[C@H](CO)NC(=O)[C@@H](NC(=O)[C@H](Cc1ccccc1)NC(=O)[C@@H](NC(=O)CNC(=O)[C@H](CCC(=O)O)NC(=O)C(C)(C)NC(=O)[C@@H](N)Cc1ccc(O)cc1)[C@@H](C)O)[C@@H](C)O)[C@@H](C)CC)[C@@H](C)CC)C(C)C)C(=O)N[C@@H](C)C(=O)NCC(=O)NCC(=O)N1CCC[C@H]1C(=O)N[C@@H](CO)C(=O)N[C@@H](CO)C(=O)NCC(=O)N[C@@H](C)C(=O)N1CCC[C@H]1C(=O)N1CCC[C@H]1C(=O)N1CCC[C@H]1C(=O)N[C@@H](CO)C(N)=O` [TZP, Tirzepatide], for which the “C/EBP-α levels (mRNA, protein)” value in series [1] is given as “largely promoted”. Besides, the “C/EBP-α levels in cortex tissues (mRNA, protein)” value was “largely enhanced” in series [2] (MCAO + TZP vs. MCAO (markedly decreased), 10 nmol/kg i.p. weekly, 8 weeks) and “notably elevated” in series [2] (TZP group (sham-operated, 10 nmol/kg i.p. weekly, 8 weeks) vs. Sham). Also, the tissue level at time at 24 h in series [3] (Brain concentration of TZP) was determined as 9.6 ± 1.2 ng/g. In series [3] (Plasma concentration of TZP), this molecule returned a level at 24 h of 80.2 ± 10.1 ng/mL. In series [4] (OGD/R + 50 and 100 nM TZP vs. OGD/R, Fig. 7A, B), the “Claudin-1 expressions (mRNA, protein)” value is recorded as “notably enhanced”. The figures for the “Claudin-1 expressions (mRNA)” value in series [4] (OGD/R + TZP (100 nM) vs. OGD/R) and in series [4] (OGD/R + sh-C/EBP-α + TZP (100 nM) vs. OGD/R + TZP) were “remarkably elevated” and “strikingly restrained”, respectively. For the same molecule, the Behavioral toxicity result in series [5] is given as “no overt behavioral toxicity”. Besides, the “Infarct volume (% of the ipsilateral hemisphere)” value in series [6] is listed as 18.7 ± 3.1%.
